Article PMC8333425, “Discovery of a dual Ras and ARF6 inhibitor from a GPCR endocytosis screen” (Nature Communications, 2021)

Columns and labels:
Test in all cases: KINOMEscan kinase binding assay
[1] = biological target: T1, 384 kinases from the human genome (Homo sapiens, UniProt Q16513); details: kinase PKN2 (Entrez PKN2)
T1 construct: purchased Eurofin/DiscoverX
In short: (§1)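 Competition binding (KINOMEscan) across 384 human kinases with compound at 10 µM. Ligand binding was expressed relative to DMSO (100%) as the average of duplicates from one experiment. S(10) selectivity score was derived.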

[2] = biological target: T2, 384 kinases from the human genome (Homo sapiens, UniProt O94768); details: kinase DRAK2 (Entrez STK17B)
T2 construct: purchased Eurofin/DiscoverX
In short: as §1

[3] = biological target: T3, 384 kinases from the human genome (Homo sapiens, UniProt Q00526); details: kinase CDK3 (Entrez CDK3)
T3 construct: purchased Eurofin/DiscoverX
T3 sequence (Q00526 whole entry): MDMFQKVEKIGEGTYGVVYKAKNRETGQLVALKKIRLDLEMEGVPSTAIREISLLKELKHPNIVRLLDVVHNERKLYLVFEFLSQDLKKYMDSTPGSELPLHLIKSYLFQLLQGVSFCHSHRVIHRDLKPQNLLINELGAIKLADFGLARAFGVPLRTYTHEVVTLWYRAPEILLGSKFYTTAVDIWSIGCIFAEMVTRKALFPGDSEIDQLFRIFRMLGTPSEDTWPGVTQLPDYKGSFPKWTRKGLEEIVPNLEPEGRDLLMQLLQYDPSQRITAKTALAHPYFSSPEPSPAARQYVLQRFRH
In short: as §1

[4] = biological target: T4, 384 kinases from the human genome (Homo sapiens, UniProt O94921); details: kinase PFTK1 (Entrez CDK14)
T4 construct: purchased Eurofin/DiscoverX
In short: as §1

[5] = biological target: T5, 384 kinases from the human genome (Homo sapiens, UniProt O95747); details: kinase OSR1 (Entrez OXSR1)
T5 construct: purchased Eurofin/DiscoverX
In short: as §1

[6] = biological target: T6, 384 kinases from the human genome (Homo sapiens, UniProt Q9HCP0); details: kinase CSNK1G1 (Entrez CSNK1G1)
T6 construct: purchased Eurofin/DiscoverX
T6 sequence (Q9HCP0 whole entry): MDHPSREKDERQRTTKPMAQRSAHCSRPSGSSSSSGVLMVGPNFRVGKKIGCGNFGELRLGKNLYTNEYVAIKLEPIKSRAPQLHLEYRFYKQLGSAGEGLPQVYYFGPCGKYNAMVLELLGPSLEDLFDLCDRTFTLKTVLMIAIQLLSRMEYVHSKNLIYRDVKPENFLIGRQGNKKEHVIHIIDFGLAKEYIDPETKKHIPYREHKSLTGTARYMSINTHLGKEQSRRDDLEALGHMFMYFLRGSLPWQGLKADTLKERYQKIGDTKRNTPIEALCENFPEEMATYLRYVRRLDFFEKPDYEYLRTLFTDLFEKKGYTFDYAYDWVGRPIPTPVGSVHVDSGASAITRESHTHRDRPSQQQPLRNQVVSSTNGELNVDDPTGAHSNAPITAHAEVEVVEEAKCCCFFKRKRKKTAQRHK
In short: as §1

[7] = biological target: T7, 384 kinases from the human genome (Homo sapiens, UniProt Q5S007); details: kinase LRRK2 (Entrez LRRK2)
T7 construct: purchased Eurofin/DiscoverX
In short: as §1

[8] = biological target: T8, 384 kinases from the human genome (Homo sapiens, UniProt Q00536); details: kinase PCTK1 (Entrez CDK16)
T8 construct: purchased Eurofin/DiscoverX
T8 sequence (Q00536 whole entry): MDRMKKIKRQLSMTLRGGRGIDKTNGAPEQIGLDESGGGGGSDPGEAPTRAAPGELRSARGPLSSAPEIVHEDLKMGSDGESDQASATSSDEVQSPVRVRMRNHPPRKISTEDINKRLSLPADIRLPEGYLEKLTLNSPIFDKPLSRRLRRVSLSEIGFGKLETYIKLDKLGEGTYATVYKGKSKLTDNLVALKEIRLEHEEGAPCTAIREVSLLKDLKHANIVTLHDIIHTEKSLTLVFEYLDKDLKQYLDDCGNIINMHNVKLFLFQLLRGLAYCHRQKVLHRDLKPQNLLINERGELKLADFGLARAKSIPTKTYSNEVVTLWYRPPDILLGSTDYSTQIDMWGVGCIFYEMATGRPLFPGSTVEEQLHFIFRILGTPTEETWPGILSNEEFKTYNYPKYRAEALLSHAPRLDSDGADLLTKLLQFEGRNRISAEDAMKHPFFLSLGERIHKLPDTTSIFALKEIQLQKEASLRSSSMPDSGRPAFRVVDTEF
In short: as §1

[9] = biological target: T9, 384 kinases from the human genome (Homo sapiens, UniProt Q9BQI3); details: kinase EIF2AK1 (Entrez EIF2AK1)
T9 construct: purchased Eurofin/DiscoverX
In short: as §1

[10] = biological target: T10, 384 kinases from the human genome (Homo sapiens, UniProt O43683); details: kinase BUB1 (Entrez BUB1)
T10 construct: purchased Eurofin/DiscoverX
In short: as §1

[11] = biological target: T11, 384 kinases from the human genome (Homo sapiens, UniProt O00444); details: kinase PLK4 (Entrez PLK4)
T11 construct: purchased Eurofin/DiscoverX
In short: as §1

[12] = biological target: T12, 384 kinases from the human genome (Homo sapiens, UniProt P09769); details: kinase FGR (Entrez FGR)
T12 construct: purchased Eurofin/DiscoverX
T12 sequence (P09769 whole entry): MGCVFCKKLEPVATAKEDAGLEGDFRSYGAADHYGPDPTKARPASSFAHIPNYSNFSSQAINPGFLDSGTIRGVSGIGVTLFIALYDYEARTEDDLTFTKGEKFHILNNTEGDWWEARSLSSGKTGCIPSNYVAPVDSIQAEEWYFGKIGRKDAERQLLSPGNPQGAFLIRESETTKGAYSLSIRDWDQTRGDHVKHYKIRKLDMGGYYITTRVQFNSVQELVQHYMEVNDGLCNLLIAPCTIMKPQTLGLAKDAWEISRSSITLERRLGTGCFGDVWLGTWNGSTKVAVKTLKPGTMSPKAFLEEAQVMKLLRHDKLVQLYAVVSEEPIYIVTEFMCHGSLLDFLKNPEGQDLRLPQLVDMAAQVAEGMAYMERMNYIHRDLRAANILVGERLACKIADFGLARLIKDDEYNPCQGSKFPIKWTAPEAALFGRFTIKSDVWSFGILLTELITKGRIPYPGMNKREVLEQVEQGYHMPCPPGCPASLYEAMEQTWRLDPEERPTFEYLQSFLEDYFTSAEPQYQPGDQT
In short: as §1

[13] = biological target: T13, 384 kinases from the human genome (Homo sapiens, UniProt P25098); details: kinase GRK2 (Entrez ADRBK1)
T13 construct: purchased Eurofin/DiscoverX
In short: as §1

[14] = biological target: T14, 384 kinases from the human genome (Homo sapiens, UniProt Q13131); details: kinase AMPK-alpha1 (Entrez PRKAA1)
T14 construct: purchased Eurofin/DiscoverX
T14 sequence (Q13131 whole entry): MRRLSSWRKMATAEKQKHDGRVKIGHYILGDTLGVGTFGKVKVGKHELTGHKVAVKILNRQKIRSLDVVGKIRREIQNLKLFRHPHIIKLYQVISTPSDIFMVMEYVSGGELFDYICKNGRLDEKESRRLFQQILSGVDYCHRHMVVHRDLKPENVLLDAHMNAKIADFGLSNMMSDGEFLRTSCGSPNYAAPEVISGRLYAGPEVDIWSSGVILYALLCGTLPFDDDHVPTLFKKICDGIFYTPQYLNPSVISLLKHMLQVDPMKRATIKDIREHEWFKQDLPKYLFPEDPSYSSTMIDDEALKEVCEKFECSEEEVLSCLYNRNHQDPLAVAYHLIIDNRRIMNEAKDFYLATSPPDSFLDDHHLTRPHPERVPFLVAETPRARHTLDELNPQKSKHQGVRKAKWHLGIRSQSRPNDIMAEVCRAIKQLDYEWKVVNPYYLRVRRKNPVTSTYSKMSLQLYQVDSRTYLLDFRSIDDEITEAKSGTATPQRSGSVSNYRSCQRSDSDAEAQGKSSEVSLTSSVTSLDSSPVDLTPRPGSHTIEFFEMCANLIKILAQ
In short: as §1

[15] = biological target: T15, 384 kinases from the human genome (Homo sapiens, UniProt O14578); details: kinase CIT (Entrez CIT)
T15 construct: purchased Eurofin/DiscoverX
In short: as §1

[16] = biological target: T16, 384 kinases from the human genome (Homo sapiens, UniProt Q9Y2H9); details: kinase MAST1 (Entrez MAST1)
T16 construct: purchased Eurofin/DiscoverX
In short: as §1

[17] = biological target: T17, 384 kinases from the human genome (Homo sapiens, UniProt Q13705); details: kinase ACVR2B (Entrez ACVR2B)
T17 construct: purchased Eurofin/DiscoverX
In short: as §1

[18] = biological target: T18, 384 kinases from the human genome (Homo sapiens, UniProt Q13237); details: kinase PRKG2 (Entrez PRKG2)
T18 construct: purchased Eurofin/DiscoverX
T18 sequence (Q13237 whole entry): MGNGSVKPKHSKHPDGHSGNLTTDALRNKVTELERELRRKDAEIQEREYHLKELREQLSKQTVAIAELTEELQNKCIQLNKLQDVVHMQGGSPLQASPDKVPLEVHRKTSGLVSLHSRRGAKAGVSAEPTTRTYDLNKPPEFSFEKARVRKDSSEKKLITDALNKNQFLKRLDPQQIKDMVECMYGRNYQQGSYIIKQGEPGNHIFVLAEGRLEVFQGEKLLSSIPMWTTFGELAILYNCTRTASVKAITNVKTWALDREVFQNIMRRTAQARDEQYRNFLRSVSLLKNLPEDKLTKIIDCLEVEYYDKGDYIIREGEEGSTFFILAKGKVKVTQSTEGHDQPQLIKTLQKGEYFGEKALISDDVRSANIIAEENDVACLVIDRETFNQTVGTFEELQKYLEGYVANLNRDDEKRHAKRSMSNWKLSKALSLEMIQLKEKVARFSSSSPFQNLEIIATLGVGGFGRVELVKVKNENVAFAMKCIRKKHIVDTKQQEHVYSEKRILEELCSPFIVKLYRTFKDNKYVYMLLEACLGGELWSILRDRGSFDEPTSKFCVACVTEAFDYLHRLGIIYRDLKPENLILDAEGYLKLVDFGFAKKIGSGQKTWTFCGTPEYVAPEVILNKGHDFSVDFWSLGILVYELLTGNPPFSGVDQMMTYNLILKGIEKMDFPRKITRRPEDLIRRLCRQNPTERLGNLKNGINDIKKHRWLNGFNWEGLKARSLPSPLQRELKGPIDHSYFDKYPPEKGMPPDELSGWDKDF
In short: as §1

[19] = biological target: T19, 384 kinases from the human genome (Homo sapiens, UniProt P42338); details: kinase PIK3CB (Entrez PIK3CB)
T19 construct: purchased Eurofin/DiscoverX
In short: as §1

[20] = biological target: T20, 384 kinases from the human genome (Homo sapiens, UniProt Q06418); details: kinase TYRO3 (Entrez TYRO3)
T20 construct: purchased Eurofin/DiscoverX
T20 sequence (Q06418 41-890): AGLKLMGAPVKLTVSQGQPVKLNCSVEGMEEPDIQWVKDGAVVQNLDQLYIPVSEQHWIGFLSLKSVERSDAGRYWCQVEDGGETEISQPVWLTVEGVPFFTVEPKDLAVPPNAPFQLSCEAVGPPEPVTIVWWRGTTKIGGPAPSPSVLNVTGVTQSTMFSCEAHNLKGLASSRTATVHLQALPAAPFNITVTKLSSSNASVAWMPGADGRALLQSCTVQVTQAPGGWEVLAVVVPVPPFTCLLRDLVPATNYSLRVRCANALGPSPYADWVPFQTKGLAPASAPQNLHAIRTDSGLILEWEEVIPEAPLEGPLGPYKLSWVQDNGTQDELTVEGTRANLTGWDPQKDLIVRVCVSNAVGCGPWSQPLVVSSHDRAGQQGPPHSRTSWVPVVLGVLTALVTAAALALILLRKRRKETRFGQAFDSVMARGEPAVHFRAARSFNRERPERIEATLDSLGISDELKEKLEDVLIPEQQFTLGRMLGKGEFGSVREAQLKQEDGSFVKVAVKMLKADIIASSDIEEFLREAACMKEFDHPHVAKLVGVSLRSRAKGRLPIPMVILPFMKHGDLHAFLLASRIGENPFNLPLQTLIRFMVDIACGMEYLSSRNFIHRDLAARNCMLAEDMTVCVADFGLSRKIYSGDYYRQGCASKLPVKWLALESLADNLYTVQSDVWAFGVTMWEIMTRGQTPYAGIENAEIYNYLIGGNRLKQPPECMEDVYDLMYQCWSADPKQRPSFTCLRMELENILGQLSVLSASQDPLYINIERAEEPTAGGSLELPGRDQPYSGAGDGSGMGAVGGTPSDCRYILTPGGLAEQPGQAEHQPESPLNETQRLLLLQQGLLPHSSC
In short: as §1

[21] = biological target: T21, 384 kinases from the human genome (Homo sapiens, UniProt O15197); details: kinase EPHB6 (Entrez EPHB6)
T21 construct: purchased Eurofin/DiscoverX
T21 sequence (O15197 32-1021): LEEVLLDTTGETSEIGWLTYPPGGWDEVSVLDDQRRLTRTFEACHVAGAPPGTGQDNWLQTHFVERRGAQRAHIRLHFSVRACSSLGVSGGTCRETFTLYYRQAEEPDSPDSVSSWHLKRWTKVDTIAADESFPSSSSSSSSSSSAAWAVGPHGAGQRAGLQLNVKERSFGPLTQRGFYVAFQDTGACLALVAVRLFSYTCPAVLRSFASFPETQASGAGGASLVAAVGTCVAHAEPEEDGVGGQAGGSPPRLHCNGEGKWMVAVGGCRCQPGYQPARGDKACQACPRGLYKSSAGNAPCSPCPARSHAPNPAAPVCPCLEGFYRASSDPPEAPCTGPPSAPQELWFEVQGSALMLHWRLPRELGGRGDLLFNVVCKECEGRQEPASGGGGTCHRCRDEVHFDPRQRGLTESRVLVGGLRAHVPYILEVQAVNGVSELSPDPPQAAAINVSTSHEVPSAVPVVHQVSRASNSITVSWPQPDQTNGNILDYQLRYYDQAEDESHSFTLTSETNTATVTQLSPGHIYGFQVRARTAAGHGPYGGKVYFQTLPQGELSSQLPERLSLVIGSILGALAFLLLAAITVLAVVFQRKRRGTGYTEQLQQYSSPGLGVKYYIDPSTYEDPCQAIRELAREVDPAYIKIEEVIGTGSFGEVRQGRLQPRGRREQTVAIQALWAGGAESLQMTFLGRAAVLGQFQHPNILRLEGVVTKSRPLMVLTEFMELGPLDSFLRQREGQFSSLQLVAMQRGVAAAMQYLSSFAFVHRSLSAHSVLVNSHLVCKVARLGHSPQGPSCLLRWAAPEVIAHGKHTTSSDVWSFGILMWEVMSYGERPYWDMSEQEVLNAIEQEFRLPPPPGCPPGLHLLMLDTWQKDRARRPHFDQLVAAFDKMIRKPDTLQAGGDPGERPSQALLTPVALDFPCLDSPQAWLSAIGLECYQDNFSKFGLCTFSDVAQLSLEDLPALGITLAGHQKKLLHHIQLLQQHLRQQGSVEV
In short: as §1

[22] = biological target: T22, 384 kinases from the human genome (Homo sapiens, UniProt O75914); details: kinase PAK3 (Entrez PAK3)
T22 construct: purchased Eurofin/DiscoverX
In short: as §1

[23] = biological target: T23, 384 kinases from the human genome (Homo sapiens, UniProt Q00532); details: kinase CDKL1 (Entrez CDKL1)
T23 construct: purchased Eurofin/DiscoverX
In short: as §1

[24] = biological target: T24, 384 kinases from the human genome (Homo sapiens, UniProt Q9UM73); details: kinase ALK (Entrez ALK)
T24 construct: purchased Eurofin/DiscoverX
In short: as §1

[25] = biological target: T25, 384 kinases from the human genome (Homo sapiens, UniProt P11309); details: kinase PIM1 (Entrez PIM1)
T25 construct: purchased Eurofin/DiscoverX
In short: as §1

[26] = biological target: T26, 384 kinases from the human genome (Homo sapiens, UniProt Q52WX2); details: kinase SBK1 (Entrez SBK1)
T26 construct: purchased Eurofin/DiscoverX
In short: as §1

CC(C)C(=O)N1CCN(c2ccc(NC(=O)c3cc4ccccc4o3)cc2Cl)CC1 [Compound 21]
Percent Control [1]: 100%
Percent Control [2]: 94%
Percent Control [3]: 99%
Percent Control [4]: 92%
Percent Control [5]: 95%
Percent Control [6]: 87%
Percent Control [7]: 89%
Percent Control [8]: 96%
Percent Control [9]: 98%
Percent Control [10]: 99%
Percent Control [11]: 89%
Percent Control [12]: 73%
Percent Control [13]: 99%
Percent Control [14]: 99%
Percent Control [15]: 75%
Percent Control [16]: 100%
Percent Control [17]: 89%
Percent Control [18]: 92%
Percent Control [19]: 99%
Percent Control [20]: 58%
Percent Control [21]: 98%
Percent Control [22]: 92%
Percent Control [23]: 100%
Percent Control [24]: 89%
Percent Control [25]: 96%
Percent Control [26]: 100%
